Patent US7863478B2, “UV filters” (Merck Patent GmbH, priority 2004, dated 2011)

What was measured:
[1] = UV absorption (UV-VIS spectra in 2-propanol, 1 mg/100 ml); assay type: physicochemical; parameters: UV absorbance at λmax (1 mg/100 ml): unit not given here; details: 1 mg/100 ml; for UV absorbance at λmax (1 mg/100 ml): value in brackets after λmax in the synthesis example
Method: FIG. 1: UV absorption spectra of 1-hydroxy-3-[(E)-3-(4-methoxyphenyl)-2-propenoyloxy]-2-oxopropane (Example 1a) and 1-hydroxy-3-(2-cyano-3,3-diphenylacryloyloxy)-2-oxopropane (Example 1b) (in each case measured in 2-propanol at a concentration of 1 mg/100 ml)
FIG. 2: UV absorption spectra of 3-[4-(3-hydroxy-2-oxopropoxymethyl)benzylidene]-4,7,7-trimethylbicyclo[2.2.1]heptan-2-one (Example 9), N-(2,3-dihydroxypropyl)-(E)-3-(4-methoxyphenyl)acrylamide (Example 10a) and N-(2,3-dihydroxypropyl)-N-methyl-(E)-3-(4-methoxyphenyl)acrylamide (Example 10b) (in each case measured in 2-propanol at a concentration of 1 mg/100 ml).

Compound	melting point	UV-VIS λmax [1] [nm]	UV absorbance at λmax (1 mg/100 ml) [1]
COc1ccc(/C=C/C(=O)NCC(=O)CO[Si](C)(C)C(C)(C)C)cc1 [Example 17, N-[3-(tert-butyldimethylsilyloxy)-2-oxopropyl]-(E)-3-(4-methoxyphenyl)acrylamide]	151 to 152 °C	300.0	0.843
CN(C)c1ccc(C(=O)OCC(=O)CO[Si](C)(C)C(C)(C)C)cc1 [Example 2]	91 to 92 °C	299.0	0.67
CN(C)c1ccc(C(=O)NCC(O)CO)cc1 (stereo not drawn) [Example 10d, N-(2,3-dihydroxypropyl)-4-dimethylaminobenzamide]	152 to 153 °C	301.0	0.947
COc1ccc(/C=C/C(=O)NCC(O)CO)cc1 (stereo not drawn) [Example 10a, N-(2,3-dihydroxypropyl)-(E)-3-(4-methoxyphenyl)acrylamide]	104 to 106 °C	298.0	0.940
CCCCC(CC)COc1ccc(/C=C/C(=O)NCC(=O)CO)cc1 (stereo not drawn) [Example 21, N-(3-hydroxy-2-oxopropyl)-(E)-3-[4-(2-ethylhexyloxyphenyl)]acrylamide]	155 to 157 °C	307.5	0.706
COc1ccc(/C=C/C(=O)OCC(=O)COC(=O)/C=C/c2ccc(OC)cc2)cc1 [Example 23, 1,3-Bis-[(E)-3-(4-methoxyphenyl)-2-propenoyloxy]-2-oxopropane]	146 to 148 °C	307.0	1.140
COc1ccc(/C=C/C(=O)NCC(O)CO[Si](C)(C)C(C)(C)C)cc1 (stereo not drawn) [Example 12, N-[3-(tert-butyldimethylsilyloxy)-2-hydroxypropyl]-(E)-3-(4-methoxyphenyl)acrylamide]	107 to 109 °C	291.0	0.481
CCCCC(CC)COc1ccc(/C=C/C(=O)OCC(=O)COC(=O)/C=C/c2ccc(OCC(CC)CCCC)cc2)cc1 (stereo not drawn) [Example 23a]	77 to 79 °C	301.0	0.947
N#CC(C(=O)OCC(=O)COC(=O)C(C#N)=C(c1ccccc1)c1ccccc1)=C(c1ccccc1)c1ccccc1 [Example 23b, 1,3-Bis-(2-cyano-3,3-diphenylacryloyloxy)-2-oxopropane]	209 °C	304.0	0.031
N#CC(C(=O)OCC(=O)CO)=C(c1ccccc1)c1ccccc1 [Example 1b, 1-Hydroxy-3-(2-cyano-3,3-diphenylacryloyloxy)-2-oxopropane]	204 °C (dec.)	303.0	0.375
COc1ccc(/C=C/C(=O)NCC(=O)CO)cc1 [Example 20, N-(3-hydroxy-2-oxopropyl)-(E)-3-(4-methoxyphenyl)acrylamide]	160 to 162 °C	294.0	0.941
COc1ccc(/C=C/C(=O)OCC(=O)CO)cc1 [Example 1a, 1-Hydroxy-3-[(E)-3-(4-methoxyphenyl)-2-propenoyloxy]-2-oxopropane]	172 to 174 °C	301.0	0.947
CN(C)c1ccc(C(=O)OCC(=O)CO)cc1 [Example 3, 3-Hydroxy-2-oxopropyl 4-dimethylaminobenzoate]	129 to 131 °C	311.0	1.213
CN(C)c1ccc(C(=O)NCC(O)CO[Si](C)(C)C(C)(C)C)cc1 (stereo not drawn) [Example 15, N-[3-(tert-butyldimethylsilyloxy)-2-hydroxypropyl]-4-dimethylaminobenzamide]	127 to 128 °C	301.0	0.64
